Experimental data reported in US20030229079A1 (published 2003).

`O=C(CC(=O)c1cccn1Cc1ccc(F)cc1)c1ccncn1` showed a melting point of 128 to 129 °C.
